Laboratory results taken from publication PMC7044277 (Nature Communications, 2020).
Values joined by “and” are separate entries in the source; they are usually repeats but may differ in a detail not shown here. Equal values may be shown once.

Tests used:
5HT1E = 5HT1E (Homo sapiens, UniProt P28566); experiment: β-arrestin2 recruitment (Tango); format: cell-based; conditions: Fig_S10i
DRD4 (D4.4 variant) = biological target: T1, DRD4 (D4.4 variant) (Homo sapiens, UniProt P21917); experiment: Gαi/o-mediated cAMP inhibition (GloSensor); format: cell-based; conditions: DRD4; agonist, cAMP inhibition; read-out: EC50 ± SEM
T1 sequence (P21917 1-419): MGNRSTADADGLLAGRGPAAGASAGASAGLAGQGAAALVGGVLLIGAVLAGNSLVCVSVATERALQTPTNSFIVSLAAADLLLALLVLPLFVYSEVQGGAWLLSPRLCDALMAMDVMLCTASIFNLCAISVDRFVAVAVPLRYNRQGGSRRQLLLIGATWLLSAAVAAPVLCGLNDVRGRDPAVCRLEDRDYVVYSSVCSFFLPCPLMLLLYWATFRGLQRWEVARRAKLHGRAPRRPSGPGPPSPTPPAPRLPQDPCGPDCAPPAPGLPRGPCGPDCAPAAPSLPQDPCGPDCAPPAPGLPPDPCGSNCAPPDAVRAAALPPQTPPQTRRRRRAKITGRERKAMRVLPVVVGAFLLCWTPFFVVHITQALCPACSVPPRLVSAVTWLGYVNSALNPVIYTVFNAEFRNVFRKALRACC

DRD2 F1103.28L = biological target: T2, DRD2 F1103.28L (Homo sapiens, UniProt P14416, F110L); experiment: β-arrestin2 recruitment (Tango), mutant; format: cell-based
T2 construct: expressed in transfected cells; host or cells: HEK293T (ATCC CRL-11268)

5HT1F = biological target: T3, 5HT1F (Homo sapiens, UniProt P30939); experiment: β-arrestin2 recruitment (Tango); format: cell-based; conditions: for β-arrestin2 recruitment response, agonist mode (single replicate values): Fig_S10j; for Fig_S10j dose-response, drug alone (agonist mode), β-arrestin2 recruitment: single replicate values
T3 construct: expressed in transfected cells; host or cells: HTLA cells expressing TEV-fused β-arrestin2
T3 sequence (P30939 1-366): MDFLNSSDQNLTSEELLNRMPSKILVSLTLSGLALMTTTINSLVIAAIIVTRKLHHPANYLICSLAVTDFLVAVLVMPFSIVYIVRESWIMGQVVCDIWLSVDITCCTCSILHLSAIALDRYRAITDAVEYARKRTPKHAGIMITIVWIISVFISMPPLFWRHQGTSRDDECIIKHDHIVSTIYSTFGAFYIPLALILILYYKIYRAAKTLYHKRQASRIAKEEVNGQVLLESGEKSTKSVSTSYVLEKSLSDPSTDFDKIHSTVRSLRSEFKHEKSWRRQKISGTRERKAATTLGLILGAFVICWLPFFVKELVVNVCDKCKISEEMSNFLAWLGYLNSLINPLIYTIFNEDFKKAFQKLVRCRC

[1] = tested on: serotonin receptor (subtype not given; reference agonist serotonin); experiment: β-arrestin2 recruitment (Tango), agonist activity, source data Fig_S10m; format: cell-based, human; conditions: drug alone

Sequence of 5HT1E (P28566 whole entry): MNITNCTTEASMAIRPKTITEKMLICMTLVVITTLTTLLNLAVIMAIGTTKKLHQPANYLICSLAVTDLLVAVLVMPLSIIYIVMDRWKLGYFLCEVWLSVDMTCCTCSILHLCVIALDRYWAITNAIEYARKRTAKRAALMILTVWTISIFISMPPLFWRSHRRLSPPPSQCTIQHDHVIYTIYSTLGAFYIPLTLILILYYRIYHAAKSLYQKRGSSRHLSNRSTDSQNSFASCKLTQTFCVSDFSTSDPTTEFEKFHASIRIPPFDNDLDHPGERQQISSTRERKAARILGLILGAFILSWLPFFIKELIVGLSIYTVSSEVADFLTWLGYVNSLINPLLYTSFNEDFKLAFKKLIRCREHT
T2 sequence (P14416 whole entry F110L): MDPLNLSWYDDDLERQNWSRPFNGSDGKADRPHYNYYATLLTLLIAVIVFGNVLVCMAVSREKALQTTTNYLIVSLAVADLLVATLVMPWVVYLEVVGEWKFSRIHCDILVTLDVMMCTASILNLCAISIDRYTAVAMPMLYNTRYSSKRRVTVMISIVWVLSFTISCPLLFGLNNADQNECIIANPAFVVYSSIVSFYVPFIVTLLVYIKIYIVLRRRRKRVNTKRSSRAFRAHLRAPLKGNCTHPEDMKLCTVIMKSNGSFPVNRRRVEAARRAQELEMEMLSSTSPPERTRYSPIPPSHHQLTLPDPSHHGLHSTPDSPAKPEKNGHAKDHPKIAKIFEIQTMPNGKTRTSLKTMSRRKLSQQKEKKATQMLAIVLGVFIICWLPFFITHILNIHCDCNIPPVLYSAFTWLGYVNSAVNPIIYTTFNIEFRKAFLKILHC

CCOc1cccc2cc([C@H](C)NCC3(O)CCCCC3)oc12 [O4SE6]
β-arrestin2 recruitment response, agonist mode (single replicate values) (5HT1E; Log[Drug] -7): -10.5885 and -12.0267 and -4.043 and -9.048 and -20.5356 and 41.9563 and -10.9581 and -15.0865 and -7.033 | β-arrestin2 recruitment response, agonist mode (single replicate values) (5HT1E; Log[Drug] -7.52): -6.825 and 5.648 and -4.719 and -12.9295 and 12.6751 and -7.089 and -18.5156 and -18.3717 and -21.8227 | β-arrestin2 recruitment response, agonist mode (single replicate values) (5HT1E; Log[Drug] -8): -7.977 and -8.538 and -9.216 and -19.7126 and -7.765 and -29.5609 and -0.3541 and 4.202 and -14.1998 | β-arrestin2 recruitment response, agonist mode (single replicate values) (5HT1E; Log[Drug] -8.52): -8.057 and -8.967 and 2.216 and 9.159 and -4.385 and 8.583 and -6.33 and -6.852 and -26.8276 | β-arrestin2 recruitment response, agonist mode (single replicate values) (5HT1E; Log[Drug] -9): 0.8147 and -7.106 and -2.942 and -13.4536 and -20.6306 and -0.4912 and -5.667 and -8.764 and -8.801 | β-arrestin2 recruitment response, agonist mode (single replicate values) (5HT1E; Log[Drug] -9.52): -5.189 and -0.1954 and -0.3872 and -6.065 and -25.1931 and 34.39 and 6.445 and -12.4444 and -9.8607 | β-arrestin2 recruitment response, agonist mode (single replicate values) (5HT1E; Log[Drug] -10): 5.7233 and -7.338 and -6.569 and -5.352 and 52.7977 and 2.248 and -7.089 and -2.873 and 1.262 | β-arrestin2 recruitment response, agonist mode (single replicate values) (5HT1E; Log[Drug] -10.52): -5.082 and -6.296 and 10.3259 and -3.566 and -12.7533 and -11.9533 and -23.7764 and -18.6704 and -6.074 | β-arrestin2 recruitment response, agonist mode (single replicate values) (5HT1E; Log[Drug] -11): -1.572 and -7.387 and 4.824 and -17.5471 and -8.254 and 2.626 and -10.6703 and -5.6779 and -4.661 | EC50 (DRD4 (D4.4 variant)): > 10 µM | EC50 (DRD2 F1103.28L): > 10 µM | β-arrestin2 recruitment response, agonist mode (single replicate values) (5HT1F; Log[Drug] -8): 1.302 and -0.3873 and 2.074 and -2.101 and -1.406 and -2.308 and -1.812 and -0.8607 and -0.04463 | β-arrestin2 recruitment response, agonist mode (single replicate values) (5HT1F; Log[Drug] -8.52): 0.304 and 0.5074 and 1.87 and 1.981 and -1.055 and -1.27 and -1.358 and -1.238 and -0.4845 | β-arrestin2 recruitment response, agonist mode (single replicate values) (5HT1F; Log[Drug] -9): 0.9904 and 0.706 and 0.885 and 0.6945 and 9.325 and -1.862 and -2.066 and -0.6583 and 0.2247 | β-arrestin2 recruitment response, agonist mode (single replicate values) (5HT1F; Log[Drug] -9.52): 3.047 and -0.8801 and 2.567 and 4.29 and 2.342 and -1.433 and -1.621 and -2.0051 and -0.408 | β-arrestin2 recruitment response, agonist mode (single replicate values) (5HT1F; Log[Drug] -10): 4.819 and -0.0956 and 1.856 and -1.573 and -2.24 and -0.1941 and -0.1562 and -0.3459 and -1.4329 | β-arrestin2 recruitment response, agonist mode (single replicate values) (5HT1F; Log[Drug] -10.52): 0.4927 and 0.6104 and 0.5001 and 1.318 and -2.635 and -1.961 and -1.313 and -0.102 and -0.1036 | β-arrestin2 recruitment response, agonist mode (single replicate values) (5HT1F; Log[Drug] -11): 1.294 and -0.1888 and 1.488 and -1.416 and -3.18 and -0.3234 and -0.2837 and 1.1189 and -0.7348 | β-arrestin2 recruitment response, agonist mode (single replicate values) (5HT1F; Log[Drug] -11.52): 2.172 and 1.385 and 0.6864 and -1.406 and -1.13 and -0.05788 and -1.691 and -2.064 and -2.201 | β-arrestin2 recruitment response, agonist mode (single replicate values) (5HT1F; Log[Drug] -12): 0.3211 and 1.218 and -0.05883 and -2.747 and -2.758 and -0.03745 and -0.9037 and -1.7453 and 2.037 | Fig_S10j dose-response, drug alone (agonist mode), β-arrestin2 recruitment (5HT1F; Log[Drug] -5): 0.3849 and -0.983 and 0.7697 and -1.569 and -1.842 and 2.318 and -0.9197 and -0.3475 and -1.47 | Fig_S10j dose-response, drug alone (agonist mode), β-arrestin2 recruitment (5HT1F; Log[Drug] -5.52): 7.151 and 5.788 and -0.505 and -0.4698 and 0.6264 and -0.6469 and -1.685 and -0.2789 and -1.819 | Fig_S10j dose-response, drug alone (agonist mode), β-arrestin2 recruitment (5HT1F; Log[Drug] -6): 2.525 and 0.2795 and 1.682 and -0.463 and -1.025 and 2.25 and -2.251 and -0.6646 and -0.8511 | Fig_S10j dose-response, drug alone (agonist mode), β-arrestin2 recruitment (5HT1F; Log[Drug] -6.52): 3.045 and 0.7943 and 0.9757 and -1.712 and -2.09 and -1.297 and -2.011 and -0.3459 and -1.811 | Fig_S10j dose-response, drug alone (agonist mode), β-arrestin2 recruitment (5HT1F; Log[Drug] -7): 1.287 and -0.1961 and 3.15 and 1.852 and -1.692 and -1.42 and -0.2821 and 1.046 and -0.8687 | Fig_S10j dose-response, drug alone (agonist mode), β-arrestin2 recruitment (5HT1F; Log[Drug] -7.52): -0.2819 and 1.395 and 1.76 and -1.559 and -1.409 and -1.542 and -1.242 and 0.6631 and 0.4096 | response, Fig_S10m, replicate values ([1]; Log[Drug] -10): -3 and -0.8547 and -1.711 and 1.274 and 0.6519 and 0.6372 and 3.446 and 2.684 and 1.5611 | response, Fig_S10m, replicate values ([1]; Log[Drug] -10.52): -1.057 and 0.5825 and 1.112 and 0.2883 and -0.05325 and 2.637 and -1.4637 and 2.006 and 9.099 | response, Fig_S10m, replicate values ([1]; Log[Drug] -11): -3.4971 and -1.766 and 0.3518 and 1.196 and 0.9733 and 1.78 and -2.611 and -3.973 and 1.645 | response, Fig_S10m, replicate values ([1]; Log[Drug] -11.52): -2.165 and -1.698 and -2.094 and 0.786 and 2.079 and 0.9742 and -3.099 and -0.8266 and -0.3396 | response, Fig_S10m, replicate values ([1]; Log[Drug] -12): 0.1375 and -0.9459 and 1.244 and -0.4049 and 1.325 and 0.3957 and -1.831 and -2.73 and 1.919
